Data published in US20230323475A1, “TEST METHOD, OF DIVIDING BLASTIC PLASMACYTOID DENDRITIC CELL NEOPLASM (BPDCN) INTO SUBTYPES” (JAPANESE FOUNDATION FOR CANCER RESEARCH, priority 2016, published 2023).

What was measured:
Format in all cases: cell-based
[1] = test system: BPDCN cell line CAL-1 (MYC+BPDCN); test: Cell survival rate (Cell Titer-Glo cell growth assay), CAL-1; settings: for survival rate of the CAL-1 cell line: CAL-1, 48 hours after addition of the BET bromodomain-selective inhibitor
Source text: (§1) The cell lines used were 4 lines: BPDCN cell lines CAL-1 (MYC^+BPDCN; Non Patent Literature 11; obtained from Nagasaki University) and PMDC05 (MYC-BPDCN; Non Patent Literature 12; obtained from Niigata University), a positive control plasma cell neoplasm KMS12PE (obtained from JCRB Cell Bank) having the increased expression of MYC, and a negative control leukemia cell line K562 (obtained from JCRB Cell Bank) in which no MYC gene rearrangement was seen.
(§2) The CAL-1, PMDC05, or KMN12PE cells at 4000 cells/well or K562 at 1000 cells/well were inoculated to 96-well cell culture plates. […] The cell survival rates were measured using a cell growth assay kit using CTG reagent (Cell Titer-Glo, manufactured by Promega Corp.).
(§3) Aurora kinase inhibitors, albeit not agents directly suppressing MYC expression, were analyzed for their effects in the present invention. […] Each inhibitor was added from 1 nm to 10000 nM to the medium of the cells of each line. 48 hours later, the survival rates of these cells were analyzed (FIG. 10).
(§4) Each inhibitor was added in the concentration of 1 nM to 10000 nM to the 4 cell lines described above. The survival rates of these cells were analyzed 48 hours later (FIG. 11).

[2] = test system: BPDCN cell line PMDC05 (MYC-BPDCN); test: Cell survival rate (Cell Titer-Glo cell growth assay), PMDC05; settings: PMDC05, 48 hours, FIG. 6
Source text: as §1, §2, §3, §4

[3] = test system: MYC expression in CAL-1 cells; test: MYC expression over time by immunostaining, CAL-1; settings: FIG. 7
Method: The ratios of MYC-positive cells at the time of JQ1 addition (0 hours), 6 hours later, 24 hours later, and 48 hours later were approximately 95%, 60%, 15%, and 0%, respectively. Good correlation was observed between decrease in cell survival rate and decrease in MYC expression level.

[4] = test system: MYC expression and PARP cleavage in KMS12PE cells; test: Western blot for MYC expression and PARP cleavage after JQ1, KMS12PE; settings: 400 nM JQ1 for 24 hours, compared with untreated cells, FIG. 9
Source text: (§5) The primary antibody used was anti-cMyc rabbit monoclonal antibody (manufactured by Abcam plc) and an anti-GAPDH mouse monoclonal antibody (manufactured by Merck Millipore) as control. The secondary antibody used was a HRP-labeled anti-rabbit IgG antibody (donkey, manufactured by Amersham Biosciences Corp.). SuperSignal West Femto Maximum Sensitivity Substrate (manufactured by Pierce/Thermo Fisher Scientific Inc.) was used for detection.
(§6) As mentioned above, it was shown that the cell growth was suppressed by the addition of the BET bromodomain-selective inhibitors to a medium. Next, analysis was conducted on a mechanism underlying the suppression of the cell growth. JQ1 was added to CAL-1, PMDC05, KMS12PE, and K562 cells. Twenty-four hours later, the cells were collected and analyzed by Western blot for MYC expression and PARP cleavage serving as an index for cell death by apoptosis. An anti-PARP antibody was obtained from Cell Signaling Technology, Inc.

[5] = test system: PARP cleavage in PMDC05 cells; test: Western blot for PARP cleavage after JQ1, PMDC05; settings: PMDC05, JQ1 for 24 hours, FIG. 9
Source text: as §5, §6

[6] = test system: PARP cleavage in K562 cells; test: Western blot for PARP cleavage after JQ1, K562; settings: K562, JQ1 for 24 hours, FIG. 9
Source text: as §5, §6

[7] = test system: negative control leukemia cell line K562; test: Cell survival rate (Cell Titer-Glo cell growth assay), K562; settings: 48 hours, JQ1 at 1000 nM or more, FIG. 6
Source text: as §1, §2

[8] = test system: MYC expression and PARP cleavage in CAL-1 cells; test: Western blot for MYC expression and PARP cleavage after JQ1, CAL-1; settings: CAL-1, 400 nM JQ1 for 24 hours, compared with untreated cells, FIG. 9
Source text: as §5, §6

[9] = inhibitor added at a high concentration

With `Cc1sc2c(c1C)C(c1ccc(Cl)cc1)=N[C@@H](CC(N)=O)c1nnc(C)n1-2` [CPI203] the “survival rate of the CAL-1 cell line” value ([1]; FIG. 6) was “sharply decreased” and the “survival rate of PMDC05” value [2, 9] was “high survival rate”.
`COc1cc2c(cc1-c1c(C)noc1C)ncc1[nH]c(=O)n([C@H](C)c3ccccn3)c12` [I-BET151] was tested, and the “survival rate of the CAL-1 cell line” value ([1]; FIG. 6) was “sharply decreased” and the “survival rate of PMDC05” value [2, 9] was “high survival rate”.
With `Cc1sc2c(c1C)C(c1ccc(Cl)cc1)=N[C@@H](CC(=O)OC(C)(C)C)c1nnc(C)n1-2` [JQ1] the “ratio of MYC-positive cells” value ([3]; CAL-1, 400 nM JQ1, 6 hours later) was about 60%, the “ratio of MYC-positive cells” value ([3]; CAL-1, 400 nM JQ1, 24 hours later) was about 15% and the “ratio of MYC-positive cells” value ([3]; CAL-1, 400 nM JQ1, 48 hours later) was about 0%. For the same molecule, the “ratio of MYC-positive cells” value ([3]; CAL-1, 400 nM JQ1, at the time of JQ1 addition (0 hours)) was “approximately 95%”, the “concentration above which the survival rate of CAL-1 was rapidly decreased” value ([1]; CAL-1, 48 hours after addition, 6.25 nM to 6400 nM, FIG. 6) was “exceeded 150 nM” and the “survival rate of PMDC05” value ([2]; JQ1 added at a high concentration of 1000 nM or more) was “high survival rate”. For the same molecule, the “MYC expression (Western blot)” value [4] was “markedly decreased”, the “expression of cleaved-PARP (index for cell death by apoptosis)” value [4] was “increased” and the “increased PARP cleavage” value [5] was “not observed”. For the same molecule, the “increased PARP cleavage” value [6] was “not observed”, the “survival rate of K562” value [7] was “high survival rate” and the “MYC expression (Western blot)” value [8] was “markedly decreased”. The “expression of cleaved-PARP (index for cell death by apoptosis)” value [8] was “increased”.
With `Cc1sc2c(c1C)C(c1ccc(Cl)cc1)=N[C@@H](CC(=O)Nc1ccc(O)cc1)c1nnc(C)n1-2` [OTX015] the “survival rate of the CAL-1 cell line” value ([1]; FIG. 6) was “sharply decreased” and the “survival rate of PMDC05” value [2, 9] was “high survival rate”.
`COc1ccccc1S(=O)(=O)Nc1ccc2c(c1)CN(C)C(=O)N2` [PFI-1] was tested, and the “survival rate of the CAL-1 cell line” value ([1]; FIG. 6) was “sharply decreased” and the “survival rate of PMDC05” value [2, 9] was “high survival rate”.
With `COc1cc(Nc2ncc3c(n2)-c2ccc(Cl)cc2C(c2c(F)cccc2OC)=NC3)ccc1C(=O)O` [alisertib] the “growth suppressive or inhibitory effect on CAL-1 compared with PMDC05 cells” value ([1]; 1 nM to 10000 nM, 48 hours, FIG. 10) was “higher growth suppressive or inhibitory effect” and the “growth suppression of BPDCN cell lines that exhibited MYC expression” value ([1]; summary statement in the description) was “effective”.
